1 molecule from ChEMBL document CHEMBL6103650, “Hybrid Molecules of Benzothiazole and Hydroxamic Acid as Dual-Acting Biofilm Inhibitors with Antibacterial Synergistic Effect against Pseudomonas aeruginosa Infections” (J Med Chem, 2025) can be followed below.

A short description of data set [1]: Toxicity in BALB/c mouse assessed as change in body weight. To be noted: in vivo.
In data set [2] the test system is Pseudomonas aeruginosa. As to the kind of experiment: Antivirulence activity in Pseudomonas aeruginosa PAO1 assessed as reduction in extracellular polysaccharides production at 10 uM incubated for 24 hrs relative to control. Format: functional. On the set-up: scale not given: the % may be the effect or the level left.
Data set [3] can be described thus: Toxicity in BALB/c mouse wound infection model assessed as spleen damage measured for 9 days by H and E staining based analysis. Format: tissue-based. The note with it: in vivo, 216 h, time 9 day.
Data set [4] deals with Pseudomonas aeruginosa. As to the kind of experiment: Antibiofilm activity against Pseudomonas aeruginosa PAO1 assessed as increase in pyoverdine level incubated for 2 hrs by fluorescence based analysis. It counts as functional, organism-based. To be noted: dose 0.3125-10 µM.
The subject of data set [5] is Pseudomonas aeruginosa. As to the kind of experiment: Antibiofilm activity against Pseudomonas aeruginosa PAO1 assessed as inhibition of biofilm formation at 0.15625 uM incubated for 24 hrs by crystal violet staining based analysis relative to control. It counts as functional.
In data set [6] the test system is Pseudomonas aeruginosa. As to the kind of experiment: Antibiofilm activity against Pseudomonas aeruginosa PAO1 assessed as increase in pyochelin level incubated for 2 hrs by fluorescence based analysis. It counts as functional, organism-based. The note with it: dose 0.3125-10 µM.
In data set [7] the test system is Pseudomonas aeruginosa. As to the kind of experiment: Anti-motility activity against Pseudomonas aeruginosa PAO1 assessed as reduction in swimming motility incubated for 24 hrs. To be noted: dose 0.3125-10 µM. It counts as functional, organism-based.
The test system of data set [8] is Pseudomonas aeruginosa. Put plainly: Antivirulence activity in Pseudomonas aeruginosa PAO1 assessed as reduction in pyocyanin at 10 uM production incubated for 24 hrs relative to control. It counts as functional. On the set-up: scale not given: the % may be the effect or the level left.
The subject of data set [9] is Pseudomonas aeruginosa. Put plainly: Antibiofilm activity against Pseudomonas aeruginosa PA1129 assessed as inhibition of biofilm formation incubated for 24 hrs by crystal violet staining based analysis. It counts as functional, organism-based.
Data set [10] has as its system Pseudomonas aeruginosa. Put plainly: Antibiofilm activity against Pseudomonas aeruginosa PA1167 assessed as inhibition of biofilm formation incubated for 24 hrs by crystal violet staining based analysis. Format: functional, organism-based.
Data set [11] relates to Pseudomonas aeruginosa. As to the kind of experiment: Antibacterial activity against Pseudomonas aeruginosa PAO1 infected in BALB/c mouse wound infection model assessed as reduction in wound area at 2.5 uM administered to wound once a day for 3 days and measured after 9 days in dropwise manner in presence of Tob. It counts as functional. Details: scale not given: the % may be the effect or the level left. To be noted: time 12 day.

Data set [12] relates to Pseudomonas aeruginosa. As to the kind of experiment: Antibiofilm activity against Pseudomonas aeruginosa PA14 assessed as inhibition of biofilm formation incubated for 24 hrs by crystal violet staining based analysis. Format: functional, organism-based. To be noted: PA14, 24 h.
The subject of data set [13] is Pseudomonas aeruginosa. As to the kind of experiment: Anti-motility activity against Pseudomonas aeruginosa PAO1 assessed as reduction in swarming motility at 10 uM incubated for 24 hrs relative to control. On the set-up: scale not given: the % may be the effect or the level left. It counts as functional.
A short description of data set [14]: Toxicity in BALB/c mouse assessed as kidney damage by H and E staining based analysis. The note with it: in vivo.
For data set [15], the system named is Pseudomonas aeruginosa. Put plainly: Antibiofilm activity against Pseudomonas aeruginosa PAO1 assessed as inhibition of biofilm formation at 2.5 incubated for 24 hrs by crystal violet staining based analysis. Format: functional.
The nature of data set [16]: Toxicity in BALB/c mouse assessed as lung damage by H and E staining based analysis. The note with it: in vivo.
Data set [17] is described as follows: Inhibition of quorum sensing system in Pseudomonas aeruginosa PAO1-pqsa-gfp assessed as reduction in fluorescence intensity at 0.3125 to 10 uM measured upto 16 hrs by GFP reporter strain assay. The note with it: dose 0.3125-10 µM.

Usually inhibition stands for the change of the read-out against control, counted positive when it falls. By IC50 is commonly meant the concentration needed to halve the response being measured.

Calls of active or inactive are those of the source. No cut-off for these calls is given here.

With `COc1ccc2nc(NCC(=O)NCCCCC(=O)NO)sc2c1`, the Activity result was “Non-toxic” in data set [1]; 58% with Pseudomonas aeruginosa [2]; “Non-toxic” in data set [3]; “Dose-dependent-effect” with Pseudomonas aeruginosa [4]; “Dose-dependent-effect” in the data set on Pseudomonas aeruginosa [6]; “Dose-dependent-effect” with Pseudomonas aeruginosa [7]. Moreover, the Activity is reported as 42% in the data set on Pseudomonas aeruginosa [8]; 35% in the data set on Pseudomonas aeruginosa [11]; 84% in the data set with Pseudomonas aeruginosa [13]; “Non-toxic” in data set [14]; “Non-toxic” in [16]. Further, the inhibition at 0.1562 µM in the data set on Pseudomonas aeruginosa [5] turned out to be 40%. Further, the result in the data set with Pseudomonas aeruginosa [9] and in the data set with Pseudomonas aeruginosa [10] was Active. For the same molecule, in the data set on Pseudomonas aeruginosa [12], the concentration for half-maximal inhibition (IC50) was found to be 1.45 µM. Also, in the data set with Pseudomonas aeruginosa [15], the “inhibition (INH)” value amounted to 65%. The inhibition result in data set [17] is “Active”.
